# Results published in PubChem BioAssay AID2060623 (Molecular Pharmacology Branch, DTP, NCI, 2025).
# System: 227483-062-R1-J1-PDC complex spheroids with HUVEC/MSC, viability
# Assay: Anticancer human tumor 227483-062-R1-J1-PDC patient-derived pancreatic carcinoma cell line growth inhibition [CLK]
# Details: for IC50: curve of first compound; for viability, T/C: stronger effect = lower value
# Summary of the method: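 Multi-cell-type spheroids combined patient-derived tumor cells with HUVEC endothelial cells and human mesenchymal stem cells. Paired agents were dosed in half-log steps down from about clinical Cmax, or from 10 microM where Cmax was unknown.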
# [1] = second compound 0.0316 µM, first compound 0.0316 µM
# [2] = second compound 0.0316 µM, first compound 0.1 µM
# [3] = second compound 0.0316 µM, first compound 0.316 µM
# [4] = second compound 0.0316 µM, first compound 1 µM
# [5] = second compound 0.0316 µM, first compound 3.16 µM
# [6] = second compound 0.0316 µM, first compound 10 µM
# [7] = second compound 0.1 µM, first compound 0.0316 µM
# [8] = second compound 0.1 µM, first compound 0.1 µM
# [9] = second compound 0.1 µM, first compound 0.316 µM
# [10] = second compound 0.1 µM, first compound 1 µM
# [11] = second compound 0.1 µM, first compound 3.16 µM
# [12] = second compound 0.1 µM, first compound 10 µM
# [13] = second compound 0.316 µM, first compound 0.0316 µM
# [14] = second compound 0.316 µM, first compound 0.1 µM
# [15] = second compound 0.316 µM, first compound 0.316 µM
# [16] = second compound 0.316 µM, first compound 1 µM
# [17] = second compound 0.316 µM, first compound 3.16 µM
# [18] = second compound 0.316 µM, first compound 10 µM
# [19] = second compound 1 µM, first compound 0.0316 µM
# [20] = second compound 1 µM, first compound 0.1 µM
# [21] = second compound 1 µM, first compound 0.316 µM
# [22] = second compound 1 µM, first compound 1 µM
# [23] = second compound 1 µM, first compound 3.16 µM
# [24] = second compound 1 µM, first compound 10 µM
# [25] = second compound 3.16 µM, first compound 0.0316 µM
# [26] = second compound 3.16 µM, first compound 0.1 µM
# [27] = second compound 3.16 µM, first compound 0.316 µM
# [28] = second compound 3.16 µM, first compound 1 µM
# [29] = second compound 3.16 µM, first compound 3.16 µM
# [30] = second compound 3.16 µM, first compound 10 µM
# [31] = second compound 10 µM, first compound 0.0316 µM
# [32] = second compound 10 µM, first compound 0.1 µM
# [33] = second compound 10 µM, first compound 0.316 µM
# [34] = second compound 10 µM, first compound 1 µM
# [35] = second compound 10 µM, first compound 3.16 µM
# [36] = second compound 10 µM, first compound 10 µM
# 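Note: spheroids exposed to compounds for seven days before readout.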
# 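Throughout, for viability, T/C: percent of DMSO vehicle control luminescence as 100% viability.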
smiles,measurement,setting,value
CC(C)CC(NC(=O)C(Cc1ccccc1)NC(=O)c1cnccn1)B(O)O (stereo unspecified) + CNC(=O)c1ccc(Nc2nc(OC3CCCC3)c3c(-c4ccc5nc(C)oc5c4)c[nH]c3n2)c(OC)c1,IC50,second compound 0.0316 µM,1.53 nM
same,IC50,second compound 0.1 µM,1.64 nM
same,IC50,second compound 0.316 µM,1.39 nM
same,IC50,second compound 1 µM,< 0.949 nM
same,IC50,second compound 3.16 µM,< 0.949 nM
same,IC50,second compound 10 µM,< 0.949 nM
same,"viability, T/C","second compound 0.0316 µM, first compound 0.000949 µM",84%
same,"viability, T/C","second compound 0.0316 µM, first compound 0.003 µM",1.62%
same,"viability, T/C","second compound 0.0316 µM, first compound 0.00949 µM",0.49%
same,"viability, T/C","second compound 0.0316 µM, first compound 0.03 µM",1.29%
same,"viability, T/C","second compound 0.0316 µM, first compound 0.0949 µM",0.77%
same,"viability, T/C","second compound 0.0316 µM, first compound 0.3 µM",1.96%
same,"viability, T/C","second compound 0.1 µM, first compound 0.000949 µM",94.3%
same,"viability, T/C","second compound 0.1 µM, first compound 0.003 µM",1.2%
same,"viability, T/C","second compound 0.1 µM, first compound 0.00949 µM",1.56%
same,"viability, T/C","second compound 0.1 µM, first compound 0.03 µM",0.47%
same,"viability, T/C","second compound 0.1 µM, first compound 0.0949 µM",0.71%
same,"viability, T/C","second compound 0.1 µM, first compound 0.3 µM",0.48%
same,"viability, T/C","second compound 0.316 µM, first compound 0.000949 µM",74.2%
same,"viability, T/C","second compound 0.316 µM, first compound 0.003 µM",0.82%
same,"viability, T/C","second compound 0.316 µM, first compound 0.00949 µM",0.43%
same,"viability, T/C","second compound 0.316 µM, first compound 0.03 µM",0.97%
same,"viability, T/C","second compound 0.316 µM, first compound 0.0949 µM",0.43%
same,"viability, T/C","second compound 0.316 µM, first compound 0.3 µM",0.68%
same,"viability, T/C","second compound 1 µM, first compound 0.000949 µM",42.7%
same,"viability, T/C","second compound 1 µM, first compound 0.003 µM",0.52%
same,"viability, T/C","second compound 1 µM, first compound 0.00949 µM",0.29%
same,"viability, T/C","second compound 1 µM, first compound 0.03 µM",0.28%
same,"viability, T/C","second compound 1 µM, first compound 0.0949 µM",1.45%
same,"viability, T/C","second compound 1 µM, first compound 0.3 µM",0.23%
same,"viability, T/C","second compound 3.16 µM, first compound 0.000949 µM",26.4%
same,"viability, T/C","second compound 3.16 µM, first compound 0.003 µM",0.37%
same,"viability, T/C","second compound 3.16 µM, first compound 0.00949 µM",0.79%
same,"viability, T/C","second compound 3.16 µM, first compound 0.03 µM",0.21%
same,"viability, T/C","second compound 3.16 µM, first compound 0.0949 µM",1.01%
same,"viability, T/C","second compound 3.16 µM, first compound 0.3 µM",0.26%
same,"viability, T/C","second compound 10 µM, first compound 0.000949 µM",17%
same,"viability, T/C","second compound 10 µM, first compound 0.003 µM",0.42%
same,"viability, T/C","second compound 10 µM, first compound 0.00949 µM",0.24%
same,"viability, T/C","second compound 10 µM, first compound 0.03 µM",0.26%
same,"viability, T/C","second compound 10 µM, first compound 0.0949 µM",1.09%
same,"viability, T/C","second compound 10 µM, first compound 0.3 µM",0.3%
CC1COCCN1c1cc(C2(S(C)(=N)=O)CC2)nc(-c2ccnc3[nH]ccc23)n1 (stereo unspecified) + CNC(=O)c1ccc(Nc2nc(OC3CCCC3)c3c(-c4ccc5nc(C)oc5c4)c[nH]c3n2)c(OC)c1,IC50,second compound 0.0316 µM,> 10000 nM
same,IC50,second compound 0.1 µM,> 10000 nM
same,IC50,second compound 0.316 µM,7130 nM
same,IC50,second compound 1 µM,1380 nM
same,IC50,second compound 3.16 µM,237 nM
same,IC50,second compound 10 µM,< 31.6 nM
same,"viability, T/C",[1],110%
same,"viability, T/C",[2],105%
same,"viability, T/C",[3],110%
same,"viability, T/C",[4],102%
same,"viability, T/C",[5],85.3%
same,"viability, T/C",[6],63.3%
same,"viability, T/C",[7],125%
same,"viability, T/C",[8],108%
same,"viability, T/C",[9],103%
same,"viability, T/C",[10],108%
same,"viability, T/C",[11],65%
same,"viability, T/C",[12],62.3%
same,"viability, T/C",[13],96.4%
same,"viability, T/C",[14],107%
same,"viability, T/C",[15],92.9%
same,"viability, T/C",[16],79.7%
same,"viability, T/C",[17],64.1%
same,"viability, T/C",[18],44.3%
same,"viability, T/C",[19],76.8%
same,"viability, T/C",[20],68.9%
same,"viability, T/C",[21],73.4%
same,"viability, T/C",[22],53%
same,"viability, T/C",[23],39.1%
same,"viability, T/C",[24],30.6%
same,"viability, T/C",[25],59.7%
same,"viability, T/C",[26],52.9%
same,"viability, T/C",[27],48.1%
same,"viability, T/C",[28],40.9%
same,"viability, T/C",[29],33.9%
same,"viability, T/C",[30],18.6%
same,"viability, T/C",[31],39.8%
same,"viability, T/C",[32],34.6%
same,"viability, T/C",[33],39.5%
same,"viability, T/C",[34],32.5%
same,"viability, T/C",[35],24.2%
same,"viability, T/C",[36],14.5%
O=C(c1cc(Cc2n[nH]c(=O)c3ccccc23)ccc1F)N1CCN(C(=O)C2CC2)CC1 + CNC(=O)c1ccc(Nc2nc(OC3CCCC3)c3c(-c4ccc5nc(C)oc5c4)c[nH]c3n2)c(OC)c1,IC50,second compound 0.0316 µM,> 10000 nM
same,IC50,second compound 0.1 µM,> 10000 nM
same,IC50,second compound 0.316 µM,> 10000 nM
same,IC50,second compound 1 µM,> 10000 nM
same,IC50,second compound 3.16 µM,44.9 nM
same,IC50,second compound 10 µM,< 31.6 nM
same,"viability, T/C",[1],86.9%
same,"viability, T/C",[2],84.9%
same,"viability, T/C",[3],119%
same,"viability, T/C",[4],93.1%
same,"viability, T/C",[5],100%
same,"viability, T/C",[6],98.4%
same,"viability, T/C",[7],86.1%
same,"viability, T/C",[8],117%
same,"viability, T/C",[9],89.3%
same,"viability, T/C",[10],89.5%
same,"viability, T/C",[11],91.5%
same,"viability, T/C",[12],91.3%
same,"viability, T/C",[13],86.8%
same,"viability, T/C",[14],92.9%
same,"viability, T/C",[15],78.5%
same,"viability, T/C",[16],89.3%
same,"viability, T/C",[17],95.5%
same,"viability, T/C",[18],99%
same,"viability, T/C",[19],63.3%
same,"viability, T/C",[20],60.9%
same,"viability, T/C",[21],65.4%
same,"viability, T/C",[22],61.1%
same,"viability, T/C",[23],80.1%
same,"viability, T/C",[24],66.3%
same,"viability, T/C",[25],50.9%
same,"viability, T/C",[26],54.5%
same,"viability, T/C",[27],40.5%
same,"viability, T/C",[28],48.9%
same,"viability, T/C",[29],50.3%
same,"viability, T/C",[30],47.7%
same,"viability, T/C",[31],37%
same,"viability, T/C",[32],34%
same,"viability, T/C",[33],35.3%
same,"viability, T/C",[34],42.1%
same,"viability, T/C",[35],42.3%
same,"viability, T/C",[36],39%
